Here are results for two molecules from patent US5739385A, “Process for preparing optically active carboxylic acids” (Union Carbide Chemicals & Plastics Technology Corporation, priority 1995, dated 1998).

SMILES strings stand for the structures.

The conditions of data set [1]: background, in words; cited from earlier work.
The nature of data set [2]: Naproxen aldehyde solubility in acetone (visual cloud point / clear point). Type of data set: physicochemical. From the text:
Solubility data for solids in acetone solvent were obtained by visually obtaining a "cloud" point for a solution of known composition by slowly cooling the solution. After obtaining a "cloud" point the solution was slowly heated until a "dear" point was observed. The "clear" point represents the saturation temperature of the solution and the "cloud" point the temperature at which massive spontaneous nucleation occurs.
Naproxen aldehydes [i.e., R- and S-2-(6-methoxy-2-naphthyl)propionaldehyde]are very soluble in acetone.

Consider `COc1ccc2cc([C@H](C)C(=O)O)ccc2c1` [S enantiomer, S-2-(6-methoxy-2-naphthyl)propionic acid], for which the anti-arthritic activity entry in data set [1] is given as “potent anti-arthritic agent”.

For `COc1ccc2cc(C(C)C=O)ccc2c1` (racemic) [Naproxen Aldehyde, R- and S-2-(6-methoxy-2-naphthyl)propionaldehyde], the solubility in acetone result in data set [2] (in words) was “very soluble”. In addition, in data set [2] (in words), the “temperature dependence of solubility” value is “very sensitive to temperature”. The “Cloud Point” value in data set [2] (solids 22.0 wt %, solids/liquid ratio 0.28, massive spontaneous nucleation temperature) is -15 °C; in data set [2] (solids 29.0 wt %, solids/liquid ratio 0.41, massive spontaneous nucleation temperature) it was -17 °C; in data set [2] (solids 30.0 wt %, solids/liquid ratio 0.43, massive spontaneous nucleation temperature), -6 °C; in data set [2] (solids 35.3 wt %, solids/liquid ratio 0.55, massive spontaneous nucleation temperature), -9 °C; in data set [2] (solids 47.0 wt %, solids/liquid ratio 0.89, massive spontaneous nucleation temperature), 5 °C. The “Clear Point” value amounted to 1 °C in data set [2] (solids 22.0 wt %, solids/liquid ratio 0.28, saturation temperature); 6 °C in data set [2] (solids 29.0 wt %, solids/liquid ratio 0.41, saturation temperature); 11 °C in data set [2] (solids 30.0 wt %, solids/liquid ratio 0.43, saturation temperature); 15 °C in data set [2] (solids 35.3 wt %, solids/liquid ratio 0.55, saturation temperature); 25 °C in data set [2] (solids 47.0 wt %, solids/liquid ratio 0.89, saturation temperature).
